Assays:
SYK kinase = biological target: T1, SYK kinase (Homo sapiens, UniProt P43405); experiment: SYK Assay (OMNIA KINASE ASSAY, SOX peptide fluorescence); assay type: biochemical; conditions: apparent Ki calculated from the IC50 using the Cheng-Prusoff equation; 1 mM ATP, 30° C.; read-out: SYK Activities: Ki
T1 construct: purchased Invitrogen, Carlsbad
In short: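 Continuous Omnia assay: SYK phosphorylation of SOX-labelled Tyr 7 peptide (10 µM) with 1 mM ATP and 0.2 mM DTT at 30 °C. Fluorescence (ex 360/em 485 nm) read every 30 s for 30 min. Reaction velocity versus inhibitor concentration gives IC50, converted to apparent Ki by Cheng-Prusoff.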

LRRK2 = LRRK2 (Homo sapiens, UniProt Q5S007); experiment: LRRK2-LRRK2 G2019S-Assay (LanthaScreen Eu Kinase Binding Assay); conditions: 5 nM LRRK2 or their mutants, 10 nM tracer 236, RT 1 h; read-out: LRRK2 Activities: IC50
LRRK2, sequence (Q5S007 970-2527 limits assumed): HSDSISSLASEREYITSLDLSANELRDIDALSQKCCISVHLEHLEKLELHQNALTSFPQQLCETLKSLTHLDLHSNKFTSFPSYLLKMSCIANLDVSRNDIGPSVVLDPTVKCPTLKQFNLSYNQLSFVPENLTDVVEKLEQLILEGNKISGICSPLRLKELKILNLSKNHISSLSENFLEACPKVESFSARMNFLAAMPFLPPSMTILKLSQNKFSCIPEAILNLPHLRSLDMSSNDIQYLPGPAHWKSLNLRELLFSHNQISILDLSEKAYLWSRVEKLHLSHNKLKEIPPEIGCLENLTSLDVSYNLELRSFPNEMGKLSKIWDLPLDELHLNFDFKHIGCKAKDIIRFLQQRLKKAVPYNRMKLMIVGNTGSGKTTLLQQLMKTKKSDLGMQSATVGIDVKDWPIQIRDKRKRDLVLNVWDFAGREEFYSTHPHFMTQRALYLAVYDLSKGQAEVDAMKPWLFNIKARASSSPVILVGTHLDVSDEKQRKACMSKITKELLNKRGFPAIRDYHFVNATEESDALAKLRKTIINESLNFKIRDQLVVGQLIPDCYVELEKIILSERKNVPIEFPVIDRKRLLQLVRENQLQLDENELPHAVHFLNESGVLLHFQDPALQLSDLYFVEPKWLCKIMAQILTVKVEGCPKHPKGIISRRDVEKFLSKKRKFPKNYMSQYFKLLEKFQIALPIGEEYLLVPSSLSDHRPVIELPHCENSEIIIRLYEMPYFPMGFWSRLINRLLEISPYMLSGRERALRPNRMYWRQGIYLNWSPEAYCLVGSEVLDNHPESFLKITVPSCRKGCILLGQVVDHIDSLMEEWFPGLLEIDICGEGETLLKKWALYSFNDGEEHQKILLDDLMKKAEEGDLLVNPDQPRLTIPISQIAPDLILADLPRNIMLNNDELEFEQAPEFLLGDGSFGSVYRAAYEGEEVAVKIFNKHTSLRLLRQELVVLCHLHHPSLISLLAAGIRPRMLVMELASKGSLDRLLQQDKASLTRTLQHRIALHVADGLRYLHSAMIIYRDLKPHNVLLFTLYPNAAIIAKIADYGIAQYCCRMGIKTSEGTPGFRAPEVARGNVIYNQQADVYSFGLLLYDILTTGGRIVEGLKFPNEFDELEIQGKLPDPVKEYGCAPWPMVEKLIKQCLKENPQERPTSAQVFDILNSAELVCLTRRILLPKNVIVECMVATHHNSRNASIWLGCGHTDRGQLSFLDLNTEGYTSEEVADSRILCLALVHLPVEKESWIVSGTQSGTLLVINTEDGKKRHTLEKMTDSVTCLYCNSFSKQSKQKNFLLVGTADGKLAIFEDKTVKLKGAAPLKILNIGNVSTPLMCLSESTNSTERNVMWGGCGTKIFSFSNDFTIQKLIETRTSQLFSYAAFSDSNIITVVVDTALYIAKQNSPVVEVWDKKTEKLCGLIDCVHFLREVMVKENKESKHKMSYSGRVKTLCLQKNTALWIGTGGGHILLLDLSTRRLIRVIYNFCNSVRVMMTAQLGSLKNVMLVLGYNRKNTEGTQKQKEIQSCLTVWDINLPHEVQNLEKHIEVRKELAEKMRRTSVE
In short: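 TR-FRET tracer-displacement binding assay with 5 nM LRRK2 or mutant, 2 nM Eu-anti-GST antibody and 10 nM tracer 236 in kinase buffer A. Incubated 1 h at RT; 665/615 nm emission ratio read (ex 340 nm). IC50 from variable-slope sigmoidal fit.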

Compound | Ki (SYK kinase) [nM] | IC50 (LRRK2) [nM]
COc1ccc(Nc2nc(-c3nccs3)nc3cn[nH]c23)cc1OC [Example #185, N-(3,4-dimethoxyphenyl)-5-(thiazol-2-yl)-1H-pyrazolo[4,3-d]pyrimidin-7-amine] | 10 to 100 | 10 to 100
O=C1CCc2ccc(Nc3nc(-c4nccs4)nc4cn[nH]c34)cc2N1 [Example #186, 7-((5-(thiazol-2-yl)-1H-pyrazolo[4,3-d]pyrimidin-7-yl)amino)-3,4-dihydroquinolin-2(1H)-one] | < 10 | 100 to 1000
COc1ccc(Nc2nc(-c3cccc(-c4nn[nH]n4)c3)nc3cn[nH]c23)cc1OC [Example #193, 5-(3-(2H-tetrazol-5-yl)phenyl)-N-(3,4-dimethoxyphenyl)-1H-pyrazolo[4,3-d]pyrimidin-7-amine] | < 10 | 100 to 1000
COc1ccc(Nc2nc(-c3cccc(C(=O)O)c3)nc3cn[nH]c23)cc1OC [Example #194, 3-(7-((3,4-dimethoxyphenyl)amino)-1H-pyrazolo[4,3-d]pyrimidin-5-yl)benzoic acid] | < 10 | 100 to 1000
O=C1CCc2ccc(Nc3nc(-c4cccc(C(=O)O)c4)nc4cn[nH]c34)cc2N1 [Example #195, 3-(7-((2-oxo-1,2,3,4-tetrahydroquinolin-7-yl)amino)-1H-pyrazolo[4,3-d]pyrimidin-5-yl)benzoic acid] | < 10 | 10 to 100
O=C1CCc2ccc(Nc3nc(-c4cccc(-c5nn[nH]n5)c4)nc4cn[nH]c34)cc2N1 [Example #196, 7-((5-(3-(2H-tetrazol-5-yl)phenyl)-1H-pyrazolo[4,3-d]pyrimidin-7-yl)amino)-3,4-dihydroquinolin-2(1H)-one] | < 10 | 100 to 1000
COc1ccc(Nc2nc(-c3cscn3)nc3cn[nH]c23)cc1OC [Example #199, N-(3,4-dimethoxyphenyl)-5-(thiazol-4-yl)-1H-pyrazolo[4,3-d]pyrimidin-7-amine] | 10 to 100 | 10 to 100
COc1ccc(Nc2nc(-c3cocn3)nc3cn[nH]c23)cc1OC [Example #202, N-(3,4-dimethoxyphenyl)-5-(oxazol-4-yl)-1H-pyrazolo[4,3-d]pyrimidin-7-amine] | 10 to 100 | 100 to 1000
COc1ccc(Nc2nc(-c3ncco3)nc3cn[nH]c23)cc1OC [Example #205, N-(3,4-dimethoxyphenyl)-5-(oxazol-2-yl)-1H-pyrazolo[4,3-d]pyrimidin-7-amine] | < 10 | 100 to 1000
O=C1CCc2ccc(Nc3nc(-c4cscn4)nc4cn[nH]c34)cc2N1 [Example #206, 7-((5-(thiazol-4-yl)-1H-pyrazolo[4,3-d]pyrimidin-7-yl)amino)-3,4-dihydroquinolin-2(1H)-one] | < 10 | 10 to 100
O=C1CCc2ccc(Nc3nc(-c4cocn4)nc4cn[nH]c34)cc2N1 [Example #207, 7-((5-(oxazol-4-yl)-1H-pyrazolo[4,3-d]pyrimidin-7-yl)amino)-3,4-dihydroquinolin-2(1H)-one] | < 10 | 100 to 1000
O=C1CCc2ccc(Nc3nc(-c4ncco4)nc4cn[nH]c34)cc2N1 [Example #208, 7-((5-(oxazol-2-yl)-1H-pyrazolo[4,3-d]pyrimidin-7-yl)amino)-3,4-dihydroquinolin-2(1H)-one] | < 10 | 100 to 1000
CN1CCC(c2ccc(Nc3nc(-c4cccs4)nc4cn[nH]c34)cc2)CC1 [Example #209, N-(4-(1-methylpiperidin-4-yl)phenyl)-5-(thiophen-2-yl)-1H-pyrazolo[4,3-d]pyrimidin-7-amine] | 10 to 100 | 100 to 1000
O=C1CCCc2ccc(Nc3nc(-c4cccc(C(=O)O)c4)nc4cn[nH]c34)cc2N1 [Example #218, 3-(7-((2-oxo-2,3,4,5-tetrahydro-1H-benzo[b]azepin-8-yl)amino)-1H-pyrazolo[4,3-d]pyrimidin-5-yl)benzoic acid] | 10 to 100 | 100 to 1000
COc1ccc(Nc2nc(-c3ccccc3F)nc3cn[nH]c23)cc1OC [Example #232, N-(3,4-dimethoxyphenyl)-5-(2-fluorophenyl)-1H-pyrazolo[4,3-d]pyrimidin-7-amine] | < 10 | 100 to 1000
COc1ccc(Nc2nc(-c3cccc(F)c3)nc3cn[nH]c23)cc1OC [Example #234, N-(3,4-dimethoxyphenyl)-5-(3-fluorophenyl)-1H-pyrazolo[4,3-d]pyrimidin-7-amine] | < 10 | 100 to 1000
O=C1CCc2ccc(Nc3nc(-c4cnc5cc[nH]c5c4)nc4cn[nH]c34)cc2N1 [Example #257, 7-((5-(1H-pyrrolo[3,2-b]pyridin-6-yl)-1H-pyrazolo[4,3-d]pyrimidin-7-yl)amino)-3,4-dihydroquinolin-2(1H)-one] | < 10 | 100 to 1000
CNS(=O)(=O)c1cccc(Nc2nc(-c3cccs3)nc3cn[nH]c23)c1 [Example #265, N-methyl-3-((5-(thiophen-2-yl)-1H-pyrazolo[4,3-d]pyrimidin-7-yl)amino)benzenesulfonamide] | 100 to 1000 | 100 to 1000
O=C1CCc2ccc(Nc3nc(-c4ccc5cn[nH]c5c4)nc4cn[nH]c34)cc2N1 [Example #269, 7-((5-(1H-indazol-6-yl)-1H-pyrazolo[4,3-d]pyrimidin-7-yl)amino)-3,4-dihydroquinolin-2(1H)-one] | < 10 | < 10
CN1CCN(C2CCN(c3ccc(Nc4nc(-c5ccccc5F)nc5cn[nH]c45)cc3)CC2)CC1 [Example #278, 5-(2-fluorophenyl)-N-(4-(4-(4-methylpiperazin-1-yl)piperidin-1-yl)phenyl)-1H-pyrazolo[4,3-d]pyrimidin-7-amine] | < 10 | 100 to 1000
COc1ccc(Nc2nc(-c3c(F)cccc3F)nc3cn[nH]c23)cc1OC [Example #281, 5-(2,6-difluorophenyl)-N-(3,4-dimethoxyphenyl)-1H-pyrazolo[4,3-d]pyrimidin-7-amine] | < 10 | 100 to 1000

Results, then the compound that gave them:

Ki (SYK kinase) [nM] | IC50 (LRRK2) [nM] | Compound
< 10 | 100 to 1000 | CN1CCN(c2ccc(Nc3nc(-c4cscn4)nc4cn[nH]c34)cc2)CC1 [Example #197, N-(4-(4-methylpiperazin-1-yl)phenyl)-5-(thiazol-4-yl)-1H-pyrazolo[4,3-d]pyrimidin-7-amine]
< 10 | 100 to 1000 | CC(=O)N1CCN(c2ccc(Nc3nc(-c4cscn4)nc4cn[nH]c34)cc2)CC1 [Example #198, 1-(4-(4-((5-(thiazol-4-yl)-1H-pyrazolo[4,3-d]pyrimidin-7-yl)amino)phenyl)piperazin-1-yl)ethan-1-one]
< 10 | 100 to 1000 | CN1CCN(c2ccc(Nc3nc(-c4cocn4)nc4cn[nH]c34)cc2)CC1 [Example #200, N-(4-(4-methylpiperazin-1-yl)phenyl)-5-(oxazol-4-yl)-1H-pyrazolo[4,3-d]pyrimidin-7-amine]
< 10 | 100 to 1000 | CC(=O)N1CCN(c2ccc(Nc3nc(-c4cocn4)nc4cn[nH]c34)cc2)CC1 [Example #201, 1-(4-(4-((5-(oxazol-4-yl)-1H-pyrazolo[4,3-d]pyrimidin-7-yl)amino)phenyl)piperazin-1-yl)ethan-1-one]
< 10 | 100 to 1000 | CN1CCN(c2ccc(Nc3nc(-c4ncco4)nc4cn[nH]c34)cc2)CC1 [Example #203, N-(4-(4-methylpiperazin-1-yl)phenyl)-5-(oxazol-2-yl)-1H-pyrazolo[4,3-d]pyrimidin-7-amine]
< 10 | 100 to 1000 | CC(=O)N1CCN(c2ccc(Nc3nc(-c4ncco4)nc4cn[nH]c34)cc2)CC1 [Example #204, 1-(4-(4-((5-(oxazol-2-yl)-1H-pyrazolo[4,3-d]pyrimidin-7-yl)amino)phenyl)piperazin-1-yl)ethan-1-one]
< 10 | 100 to 1000 | Fc1ccccc1-c1nc(Nc2ccc(N3CCOCC3)cc2)c2[nH]ncc2n1 [Example #233, 5-(2-fluorophenyl)-N-(4-morpholinophenyl)-1H-pyrazolo[4,3-d]pyrimidin-7-amine]
< 10 | 10 to 100 | Fc1cccc(-c2nc(Nc3ccc(N4CCOCC4)cc3)c3[nH]ncc3n2)c1 [Example #235, 5-(3-fluorophenyl)-N-(4-morpholinophenyl)-1H-pyrazolo[4,3-d]pyrimidin-7-amine]
< 10 | 100 to 1000 | CC(=O)N1CCN(c2ccc(Nc3nc(-c4cccc(S(N)(=O)=O)c4)nc4cn[nH]c34)cc2)CC1 [Example #237, 3-(7-((4-(4-acetylpiperazin-1-yl)phenyl)amino)-1H-pyrazolo[4,3-d]pyrimidin-5-yl)benzenesulfonamide]
< 10 | 100 to 1000 | NS(=O)(=O)c1cccc(-c2nc(Nc3ccc(N4CCOCC4)cc3)c3[nH]ncc3n2)c1 [Example #239, 3-(7-((4-morpholinophenyl)amino)-1H-pyrazolo[4,3-d]pyrimidin-5-yl)benzenesulfonamide]
< 10 | 100 to 1000 | CS(=O)(=O)c1cccc(-c2nc(Nc3ccc(N4CCOCC4)cc3)c3[nH]ncc3n2)c1 [Example #251, 5-(3-(methylsulfonyl)phenyl)-N-(4-morpholinophenyl)-1H-pyrazolo[4,3-d]pyrimidin-7-amine]
10 to 100 | 100 to 1000 | Fc1ccc(-c2nc(Nc3ccc(N4CCOCC4)cc3)c3[nH]ncc3n2)cc1 [Example #271, 5-(4-fluorophenyl)-N-(4-morpholinophenyl)-1H-pyrazolo[4,3-d]pyrimidin-7-amine]
10 to 100 | 100 to 1000 | Fc1cccc(F)c1-c1nc(Nc2ccc(N3CCOCC3)cc2)c2[nH]ncc2n1 [Example #282, 5-(2,6-difluorophenyl)-N-(4-morpholinophenyl)-1H-pyrazolo[4,3-d]pyrimidin-7-amine]

Reference: patent US9802937B2, “Substituted pyrazolo{4,3-D}pyrimidines as kinase inhibitors” (ORIGENIS GMBH, priority 2011, dated 2017)
